The values below are quoted from earlier work in patent publication US11633350B2, “Hypotonic microbicidal formulations and methods of use” (priority 2014, dated 2023).

The test system of one data set is HIV. The following applies: PK/PD models.

On to `C[C@H](Cn1cnc2c(N)ncnc21)OCP(=O)(O)O` [tenofovir, (R)-9-(2-phosphonylmethoxypropyl)adenine], for which the “plasma concentration associated with 90% protection (EC90)” value with HIV was 0.107 µg/mL.
As to `CC(C)OC(=O)OCOP(=O)(CO[C@H](C)Cn1cnc2c(N)ncnc21)OCOC(=O)OC(C)C.O=C(O)/C=C/C(=O)O` [TDF, 2,4,6,8-Tetraoxa-5-phosphanonanedioic acid, 5-[[(1R)-2-(6-amino-9H-purin-9-yl)-1-methylethoxy]methyl]-, bis(1-methylethyl) ester, 5-oxide, (2E)-2-butenedioate (1:1)], the “systemic (blood) TFV peak (Cmax) concentration” value (after a single oral TDF dose) is given as 350 ng/mL. The time to protection (in vivo) is on record as 3 days. Also, where the note is “in vivo, po”, the “time to achieve protective concentrations of TFV-DP in tissue” value was “one week”.
